Values of other authors as cited in patent publication US20260158011A1 (Achieve Life Sciences, Inc., priority 2023, published 2026).
Like-named read-outs stand apart in the source and are kept apart here.

Assays:
smokers [1] = conditions: cited from earlier work
smokers [2] = conditions: Cochrane, Chantix (n > 7000); cited from earlier work
[3] = target: neuronal alpha4, beta2 (α4β2) receptors (Homo sapiens, UniProt P17787+P43681); conditions: background studies; cited from earlier work
Sequence of neuronal alpha4, beta2 (α4β2) receptors (P43681 29-627 limits assumed): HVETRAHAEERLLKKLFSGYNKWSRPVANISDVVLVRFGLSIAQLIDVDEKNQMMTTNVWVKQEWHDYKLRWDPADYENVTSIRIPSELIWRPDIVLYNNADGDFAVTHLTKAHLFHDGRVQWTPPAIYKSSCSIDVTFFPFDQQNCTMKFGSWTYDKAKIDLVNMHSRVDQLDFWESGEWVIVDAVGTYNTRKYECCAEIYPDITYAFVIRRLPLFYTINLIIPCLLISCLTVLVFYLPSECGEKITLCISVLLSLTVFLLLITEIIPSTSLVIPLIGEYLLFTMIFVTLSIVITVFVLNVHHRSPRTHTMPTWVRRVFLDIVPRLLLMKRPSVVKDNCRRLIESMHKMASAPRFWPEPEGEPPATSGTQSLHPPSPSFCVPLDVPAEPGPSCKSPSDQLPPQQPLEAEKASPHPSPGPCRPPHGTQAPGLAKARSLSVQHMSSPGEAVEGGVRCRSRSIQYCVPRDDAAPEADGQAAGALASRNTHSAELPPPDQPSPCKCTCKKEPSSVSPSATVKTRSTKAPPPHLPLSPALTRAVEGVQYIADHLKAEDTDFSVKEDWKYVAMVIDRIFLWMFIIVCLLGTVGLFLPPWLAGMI
Sequence of neuronal alpha4, beta2 (α4β2) receptors (P17787 26-502): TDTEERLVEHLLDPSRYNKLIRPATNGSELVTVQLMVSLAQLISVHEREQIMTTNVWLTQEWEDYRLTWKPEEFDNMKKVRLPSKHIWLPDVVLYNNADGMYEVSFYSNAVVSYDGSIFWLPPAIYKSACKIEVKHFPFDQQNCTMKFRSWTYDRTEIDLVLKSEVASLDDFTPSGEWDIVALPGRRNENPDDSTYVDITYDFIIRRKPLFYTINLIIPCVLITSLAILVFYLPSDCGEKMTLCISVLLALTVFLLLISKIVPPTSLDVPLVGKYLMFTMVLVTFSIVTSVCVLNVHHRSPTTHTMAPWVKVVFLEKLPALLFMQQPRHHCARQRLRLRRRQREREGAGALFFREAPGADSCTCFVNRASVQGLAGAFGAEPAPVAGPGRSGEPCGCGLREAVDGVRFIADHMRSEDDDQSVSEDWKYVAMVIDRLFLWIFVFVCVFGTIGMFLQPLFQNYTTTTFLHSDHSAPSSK

## c1cnc2cc3c(cc2n1)[C@@H]1CNC[C@H]3C1 [Chantix ®, varenicline]
Smokers [1]; Chantix 12 weeks (EAGLES), versus placebo
  OR at End of Treatment: 4.0
Smokers [1]; Chantix 12 weeks (EAGLES)
  Drug-placebo difference in quit rate at End of Treatment: 24.3%
  Quit Rate at End of Treatment: 38.0%
Smokers [1]; Chantix (EAGLES), versus placebo
  OR at 4 Weeks Off Treatment: 3.5
Smokers [1]; Chantix (EAGLES)
  Drug-placebo difference in quit rate at 4 Weeks Off Treatment: 20.7%
  Quit Rate at 4 Weeks Off Treatment: 33.2%
Smokers [1]; Chantix (ONCKEN), versus placebo
  OR at 4 Weeks Treatment: 3.1
Smokers [1]; Chantix (ONCKEN)
  Drug-placebo difference in quit rate at 4 Weeks Treatment: 21.4%
  Quit Rate at 4 Weeks Treatment: 37.7%
Smokers [1]; EAGLES, U.S. patients (N=1065)
  Quit rate at 24 weeks: 16%
Smokers [1]; EAGLES, all regions
  Overall quit rate at 24 weeks: 22%
Smokers [1]; EAGLES, region Non-U.S.
  CAR weeks 9-24 % (95% CI): 27.9 (25.2-30.8) % (95% CI)
  Versus placebo OR (95% CI), CAR weeks 9-24: 2.80 (2.20-3.55)
Smokers [1]; EAGLES, region U.S.
  CAR weeks 9-24 % (95% CI): 16.1 (14.0-18.4) % (95% CI)
  Versus placebo OR (95% CI), CAR weeks 9-24: 2.66 (1.99-3.55)
Smokers [2]
  Serious AEs: 3.3%
  TEAE: Abnormal dreams: 12.5%
  TEAE: Headache: 12.7%
  TEAE: Insomnia: 14.2%
  TEAE: Nausea: 27.8%

## CN1CCCC1c1cccnc1 (stereo not drawn) [nicotine, reference compound]
[3]
  Binding to α4β2 receptors: bind strongly and preferentially
